Assay results taken from PubChem BioAssay AID248 (DTP/NCI, 2004).
Values joined by “and” are separate entries in the source; they are usually repeats but may differ in a detail not shown here. Equal entries are not always repeated. Inconclusive results and toxic doses are left out. Cut-off read from the data, not from the text of the source: active = T/C of 150% or more; inactive = T/C below 125%.

System: L1210 leukemia ip in BDF1 mice, survival T/C
Test: NCI In Vivo Anticancer Drug Screen. Data for tumor model L1210 Leukemia (intraperitoneal) in B6D2F1 (BDF1) mice
Details: endpoint: mean survival time, higher = longer survival
Procedure, shortened: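 Mice bearing the transplanted tumor received compound or vehicle. Survival of the treated group was divided by that of the vehicle-treated control group to give the ratio.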

[1] = dose: 100.0 mg/kg/injection, schedule: Q01DX001 (ip), vehicle: saline
[2] = dose: 100.0 mg/kg/injection, schedule: Q01DX009 (ip), vehicle: saline
[3] = dose: 200.0 mg/kg/injection, schedule: Q01DX001 (ip), vehicle: saline
[4] = dose: 200.0 mg/kg/injection, schedule: Q01DX009 (ip), vehicle: saline
[5] = dose: 400.0 mg/kg/injection, schedule: Q01DX001 (ip), vehicle: saline
[6] = dose: 400.0 mg/kg/injection, schedule: Q01DX009 (ip), vehicle: saline
[7] = dose: 100.0 mg/kg/injection, schedule: Q01DX009 (ip), vehicle: Klucel (hydroxypropylcellulose) (HPC)
[8] = dose: 200.0 mg/kg/injection, schedule: Q01DX009 (ip), vehicle: Klucel (hydroxypropylcellulose) (HPC)
[9] = dose: 400.0 mg/kg/injection, schedule: Q01DX009 (ip), vehicle: Klucel (hydroxypropylcellulose) (HPC)
[10] = dose: 100.0 mg/kg/injection, schedule: Q04DX003 (ip), vehicle: saline with Tween-80
[11] = dose: 200.0 mg/kg/injection, schedule: Q04DX003 (ip), vehicle: saline with Tween-80
[12] = dose: 100.0 mg/kg/injection, schedule: Q04DX003 (ip), vehicle: Klucel (hydroxypropylcellulose) (HPC)
[13] = dose: 200.0 mg/kg/injection, schedule: Q04DX003 (ip), vehicle: Klucel (hydroxypropylcellulose) (HPC)
[14] = dose: 400.0 mg/kg/injection, schedule: Q04DX003 (ip), vehicle: Klucel (hydroxypropylcellulose) (HPC)
[15] = dose: 50.0 mg/kg/injection, schedule: Q01DX009 (ip), vehicle: Klucel (hydroxypropylcellulose) (HPC)
[16] = dose: 400.0 mg/kg/injection, schedule: Q04DX003 (ip), vehicle: saline with Tween-80
[17] = dose: 100.0 mg/kg/injection, schedule: Q04DX002 (ip), vehicle: Klucel (hydroxypropylcellulose) (HPC)
[18] = dose: 200.0 mg/kg/injection, schedule: Q04DX002 (ip), vehicle: Klucel (hydroxypropylcellulose) (HPC)
[19] = dose: 400.0 mg/kg/injection, schedule: Q04DX002 (ip), vehicle: Klucel (hydroxypropylcellulose) (HPC)
[20] = dose: 100.0 mg/kg/injection, schedule: Q01DX001 (ip), vehicle: saline with Tween-80
[21] = dose: 200.0 mg/kg/injection, schedule: Q01DX001 (ip), vehicle: saline with Tween-80
[22] = dose: 400.0 mg/kg/injection, schedule: Q01DX001 (ip), vehicle: saline with Tween-80

Measured: T/C

CCCCN(CCCC)C(=N)c1c(C)cc(C)cc1C
inactive: dose: 2.5 mg/kg/injection, schedule: Q01DX001 (ip), vehicle: saline 101 % of control | dose: 5.0 mg/kg/injection, schedule: Q01DX001 (ip), vehicle: saline 105 % of control and 106 % of control and 108 % of control | dose: 7.0 mg/kg/injection, schedule: Q01DX001 (ip), vehicle: saline 94 % of control and 104 % of control | dose: 10.0 mg/kg/injection, schedule: Q01DX001 (ip), vehicle: saline 98 % of control and 101 % of control and 110 % of control | dose: 15.0 mg/kg/injection, schedule: Q01DX001 (ip), vehicle: saline 102 % of control and 104 % of control

CCCCn1c(C)cc2c(c1=O)COC(=O)C2CC (centres undefined)
inactive: dose: 2.5 mg/kg/injection, schedule: Q04DX003 (ip), vehicle: saline 100 % of control | dose: 5.0 mg/kg/injection, schedule: Q04DX003 (ip), vehicle: saline 100 % of control | dose: 10.0 mg/kg/injection, schedule: Q04DX003 (ip), vehicle: saline 95 % of control | dose: 20.0 mg/kg/injection, schedule: Q04DX003 (ip), vehicle: saline 97 % of control | dose: 40.0 mg/kg/injection, schedule: Q04DX003 (ip), vehicle: saline 94 % of control | dose: 80.0 mg/kg/injection, schedule: Q04DX003 (ip), vehicle: saline 95 % of control

COC1CCS(=O)(=O)C1 (centres undefined)
inactive: [1] 95 % of control | [2] 97 % of control | [3] 94 % of control | [4] 98 % of control | [5] 94 % of control | [6] 100 % of control

COc1ccc(/C=N/NC(=O)Nc2ccccc2)cc1OC
inactive: [7] 98 % of control | [8] 89 % of control | [9] 93 % of control

CCCN(CCC)CCCCCCO
inactive: [10] 94 % of control | [11] 96 % of control

Clc1nnc(NC2CCCCC2)c(Cl)c1Cl
inactive: [7] 102 % of control | [12] 91 % of control | [8] 102 % of control | [13] 91 % of control | [9] 110 % of control | [14] 92 % of control

CC(C)(C)CC(C)(C)c1ccc(Oc2ccc([N+](=O)[O-])cc2S(=O)(=O)O)cc1
inactive: [10] 97 % of control

Oc1ccccc1C=Nc1cccc(Cl)c1Cl
inactive: [12] 91 % of control | [13] 98 % of control | [14] 100 % of control

COc1ccc(NC(=O)Nc2nccs2)c(OC)c1
inactive: [2] 104 % of control | [4] 102 % of control | [6] 105 % of control

O=C(O)C1CC2C=CC1C2 (centres undefined)
inactive: dose: 100.0 mg/kg/injection, schedule: Q01DX009 (ip), vehicle: saline with Tween-80 101 % of control | dose: 100.0 mg/kg/injection, schedule: Q04DX003 (ip), vehicle: saline 102 % of control | dose: 200.0 mg/kg/injection, schedule: Q01DX009 (ip), vehicle: saline with Tween-80 101 % of control | dose: 200.0 mg/kg/injection, schedule: Q04DX003 (ip), vehicle: saline 94 % of control | dose: 400.0 mg/kg/injection, schedule: Q01DX009 (ip), vehicle: saline with Tween-80 102 % of control | dose: 400.0 mg/kg/injection, schedule: Q04DX003 (ip), vehicle: saline 105 % of control

CC(C)C(NC(=O)c1ccccc1)C(=O)O (centres undefined)
inactive: [7] 92 % of control | [12] 96 % of control | [8] 98 % of control | [13] 113 % of control | [9] 96 % of control | [14] 100 % of control

CN(C)C/C(=C\c1ccccc1)C(=O)c1ccccc1
inactive: dose: 100.0 mg/kg/injection, schedule: Q04DX003 (ip), vehicle: other 98 % of control

O=C1CSCC(=O)O1
inactive: [15] 97 % of control | [7] 89 % of control | [8] 86 % of control

CCOC(=O)C(C#N)N=O (centres undefined)
inactive: dose: 6.25 mg/kg/injection, schedule: Q04DX003 (ip), vehicle: Klucel (hydroxypropylcellulose) (HPC) 89 % of control | dose: 12.5 mg/kg/injection, schedule: Q04DX003 (ip), vehicle: Klucel (hydroxypropylcellulose) (HPC) 91 % of control | dose: 25.0 mg/kg/injection, schedule: Q01DX009 (ip), vehicle: Klucel (hydroxypropylcellulose) (HPC) 95 % of control | dose: 25.0 mg/kg/injection, schedule: Q04DX003 (ip), vehicle: Klucel (hydroxypropylcellulose) (HPC) 92 % of control | [15] 103 % of control | dose: 50.0 mg/kg/injection, schedule: Q04DX003 (ip), vehicle: saline 100 % of control | [7] 97 % of control

O=C1NC(c2ccccc2)C(=O)NC1c1ccccc1 (centres undefined)
inactive: [10] 94 % of control | [11] 86 % of control | [16] 89 % of control

COc1ccc(OC(=O)Nc2ccc(F)cc2)cc1
inactive: dose: 50.0 mg/kg/injection, schedule: Q01DX001 (ip), vehicle: carboxymethylcellulose (CMC) 97 % of control | dose: 50.0 mg/kg/injection, schedule: Q01DX009 (ip), vehicle: carboxymethylcellulose (CMC) 93 % of control and 90 % of control | dose: 50.0 mg/kg/injection, schedule: Q04DX002 (ip), vehicle: carboxymethylcellulose (CMC) 95 % of control and 106 % of control | dose: 50.0 mg/kg/injection, schedule: Q04DX003 (ip), vehicle: carboxymethylcellulose (CMC) 101 % of control | dose: 100.0 mg/kg/injection, schedule: Q01DX001 (ip), vehicle: carboxymethylcellulose (CMC) 89 % of control | dose: 100.0 mg/kg/injection, schedule: Q01DX009 (ip), vehicle: carboxymethylcellulose (CMC) 93 % of control and 103 % of control | dose: 100.0 mg/kg/injection, schedule: Q04DX002 (ip), vehicle: carboxymethylcellulose (CMC) 101 % of control and 110 % of control | dose: 100.0 mg/kg/injection, schedule: Q04DX003 (ip), vehicle: carboxymethylcellulose (CMC) 101 % of control | dose: 200.0 mg/kg/injection, schedule: Q01DX001 (ip), vehicle: carboxymethylcellulose (CMC) 89 % of control | dose: 200.0 mg/kg/injection, schedule: Q01DX009 (ip), vehicle: carboxymethylcellulose (CMC) 101 % of control and 104 % of control | dose: 200.0 mg/kg/injection, schedule: Q04DX002 (ip), vehicle: carboxymethylcellulose (CMC) 96 % of control and 106 % of control | dose: 200.0 mg/kg/injection, schedule: Q04DX003 (ip), vehicle: carboxymethylcellulose (CMC) 101 % of control

CC(C)(C)COC(=O)C(C)(C)CC(C)(C)C
inactive: [1] 93 % of control | dose: 187.0 mg/kg/injection, schedule: Q01DX001 (ip), vehicle: carboxymethylcellulose (CMC) 92 % of control | [3] 102 % of control | dose: 267.0 mg/kg/injection, schedule: Q01DX001 (ip), vehicle: carboxymethylcellulose (CMC) 97 % of control | dose: 400.0 mg/kg/injection, schedule: Q01DX001 (ip), vehicle: carboxymethylcellulose (CMC) 96 % of control | dose: 600.0 mg/kg/injection, schedule: Q01DX001 (ip), vehicle: carboxymethylcellulose (CMC) 96 % of control

CC1(C)CC(=O)C(C)(CCc2ccccc2)C(=O)C1
inactive: [10] 97 % of control | [11] 98 % of control | [16] 95 % of control

CCCNC(=O)Nc1ccccc1OC
inactive: [17] 97 % of control | [18] 87 % of control | [19] 94 % of control

O=C(Nc1nccs1)c1ccccc1F
inactive: [17] 87 % of control | [18] 97 % of control | [19] 102 % of control

O=C(N/N=C/c1ccc([N+](=O)[O-])cc1)c1cccc2ccccc12
inactive: [1] 97 % of control | [3] 89 % of control | [5] 89 % of control

CCCC(C)CC(=O)CC(C)=O (centres undefined)
inactive: [20] 93 % of control | [21] 95 % of control | [22] 95 % of control

CNC(=O)C(C)(C)C
inactive: [20] 100 % of control | [21] 103 % of control | [22] 100 % of control

CCCCCC(Oc1ccc(Cl)cc1)C(=O)O (centres undefined)
inactive: [12] 104 % of control | [13] 98 % of control
